The source of these data is article PMC8597046, “Use of Mixture Dosing and Nonlinear Mixed Effect Modeling of Eight Environmental Contaminants in Rabbits to Improve Extrapolation Value of Toxicokinetic Data” (Environmental Health Perspectives, 2021).

Bounds are passed on as bounds.

As usually defined, the half-life is the time needed for the level to fall by half in the phase considered. Read a high half-life as slow loss.

The nature of series [1]: Nonlinear mixed effect (NLME) compartmental modeling of merged IV and oral serum concentrations. The conditions noted are these: for AUCVO/dose: oral dosing; for tvK12 (distribution rate constant) / tvK21 (distribution rate constant) / tvVc (volume of the central compartment) / tvKabs (rate constant of absorption) / tvK10 (elimination rate constant from the central compartment): population primary parameter, typical value; for tvKabs (rate constant of absorption) / AUCVO: MEHP after oral DEHP; for Volume(s) of the peripheral compartment: for PFOA first peripheral compartment; for AUCIV: dosing time to infinity after intravenous dosing; for AUCVO: dosing time to infinity after oral dosing. From the text: A nonlinear mixed effect (NLME) modeling approach was used to analyze simultaneously all data obtained from the different rabbits after both IV and oral administrations and to provide robust estimates of the typical TK parameters.
The primary parameters of the model, namely the volume of distribution of the central compartment (V1), the first-order rate constants ( K10 , K12 , K21 , and Kabs plus K13 , K31 for PFOA) and the bioavailability (F) and their associated precisions [standard error (SE)] were estimated by minimizing an objective function value (OFV) expressed as minus twice the log of the likelihood estimation ( −2LL ). […] Marginal likelihood was approximated by using the Laplacian engine by default and, when this engine was unable to determine the SE of the estimate, the Quasi-Random Parametric Expectation Maximization (QRPEM) was selected.
Between subject variability (BSV) of the parameters was measured using the exponential model θparameter_i=θtv_parameter×exp (ηi), where θparameter_i is the parameter estimated for the ith individual, θtv_parameter is the typical population value of the parameter, and ηi is the deviation associated with the ith individual from the corresponding value of the parameter at the population level.
The distribution of ηi was assumed to be normal with a mean of 0 and a variance ω² . BSV was reported as a coefficient of variation (CV) in the original scale CV(%)=100× exp (ω^2)−1 .
The residual variance was modeled using a combined additive and proportional error model Cobsij=Cpredij(1 + ε1ij) + ε2ij, where Cobsij and Cpredij are respectively the jth observed and predicted concentrations for the ith individual, and ε1ij and ε2ij are the multiplicative and additive residual errors.
Secondary parameters were calculated from the population primary parameters.
The clearance values (CL) were estimated using Equation 5: (5) CL=K10×V1, where V1 is the volume of the central compartment and K10 is the elimination rate constant from the central compartment.
The volume of the peripheral compartment (V2) was estimated with Equation 6: (6) V2=V1×(K12/K21), where K12 and K21 are the distribution rate constants between the central and the peripheral compartments.
The clearance of distribution (Q) was estimated using Equation 7: (7) Q=K12×V1, with […] and K12 as defined above.
The volume of distribution associated with the terminal phase was estimated with Equation 10: (10) VZ=CL/λZ, with λZ as defined above.
The AUC was computed as a secondary parameter using Equation 11: (11) AUC=Dose/CL.
The terminal half-life was estimated with Equation 1, as previously described.

Series [2] is described as follows: Chronic exposure: daily oral mixture for 17 wk, steady-state serum concentrations. The conditions noted are these: for concentration at 17 wk: female, New Zealand white (INRA 1777 line), rabbit, in vivo, po. The protocol:
The objective of this preliminary experiment was to check the ability of our approach to determine the loading and maintenance doses of the eight compounds to be administered simultaneously by oral route to reproduce in female rabbits targeted serum concentrations. The experiment was carried out on thirty-two 2-wk old female New Zealand white rabbits (INRA 1777 line) randomly allocated to a treatment and control groups of 16 rabbits weighing 309±45g and 298±62g , respectively. The treated rabbits were orally administrated a mixture of the eight compounds at a dosage corresponding to the sum of the loading and daily maintenance doses followed by daily administrations of the maintenance dose for 17 wk (see the “Estimation of the doses” section). The control group was orally administrated the vehicle for the same duration.
The volume of the maintenance dosing solution ( 1mL/kg ) was weekly adjusted to the mean BW estimated from the known pattern of growth of the INRA 1777 rabbit line. Oral dosing and antemortem blood sampling were performed as previously described.
Blood samples were left to clot for about 20–30 min at ambient temperature and centrifuged for 20 min at 3,000×g at 25°C. The separated serum was stored in glass tubes at −20°C until assayed.

Where [3] appears, read: female, New Zealand white (INRA 1777 line), rabbit, in vivo.
Where [4] appears, read: female, New Zealand white, rabbit, in vivo.
Where [5] appears, read: female, New Zealand white, rabbit, in vivo, iv.
Where [6] appears, read: female, New Zealand white, rabbit, in vivo, po.
Where [7] appears, read: population secondary parameter, mean.

As to `Brc1ccc(Oc2ccc(Br)cc2Br)c(Br)c1` [BDE-47, 2,2′,4,4′-tetrabromodiphenyl ether], in series [1] (setting [3]), the Vd was found to be 45 L/kg and the k el was 1.8e-05 s⁻¹. This compound also came in with a bioavailability in series [1] (female, New Zealand white (INRA 1777 line), rabbit, in vivo, po, Oral bioavailability (F), NLME model) above 85%. In series [1] (setting [4]), this compound showed an MRT of 5.54 days and a half-life of 6.79 days. In series [1] (female, New Zealand white, rabbit, in vivo, Clearance, population secondary parameter, mean), this compound showed a clearance of 5.67 mL/min/kg. Besides, the AUC in series [1] (setting [5]) was found to be 29 µM·h. Besides, the AUC in series [1] (setting [6]) amounted to 71 µM·h. The same compound showed a bioavailability in series [1] (female, New Zealand white, rabbit, in vivo, po, Bioavailability, population secondary parameter, mean, as fraction) of 96%. Also, the AUCVO/dose in series [1] stood at 2.97 μmol×h/L per μmol/kg BW. Further, in series [1] (mean), the “tvK12 (distribution rate constant)” value was determined as 0.0697 h⁻¹, the “tvK21 (distribution rate constant)” value was 0.009154 h⁻¹, the “tvVc (volume of the central compartment)” value was found to be 5.188 L/kg and the “tvKabs (rate constant of absorption)” value turned out to be 0.02289 h⁻¹. The “Volume(s) of the peripheral compartment” value in series [1] (setting [7]) was determined as 39 L/kg. In addition, the concentration at 17 wk in series [2] is 0.16 ± 0.058 ng/mL.

For the compound `O=S(=O)(c1ccc(O)cc1)c1ccc(O)cc1` [BPS, bisphenol S], in series [1] (population secondary parameter), the AUCIV was 3.3 µM·h and the AUCVO was found to be 3.6 µmol·h/L. Moreover, the “tvKabs (rate constant of absorption), fixed” value in series [1] (fixed to 10, estimation of Kabs converging toward infinity) is 10 h⁻¹. The compound further registered an Oral systemic exposure in series [1] (oral, dose-normalised AUC) of 0.20 μmol/h/L per μmol/kg BW. In series [1] (mean), the “tvK10 (elimination rate constant from the central compartment)” value was 1.895 h⁻¹ and the “tvVc (volume of the central compartment)” value is recorded as 1.681 L/kg. The compound also registered an MRT in series [1] (setting [7]) of 0.262 days. Moreover, the “Mean serum concentration of (unconjugated) BPS, estimated” value in series [2] (estimated from total BPS and 7% unconjugated fraction, targeted CSS 1 ng/mL) is reported as 0.98 ng/mL.

As to `Clc1c(Cl)c(Cl)c(Cl)c(Cl)c1Cl` [HCB, hexachlorobenzene], in series [1] (setting [3]), the VSS was in the range of 33 to 45 L/kg, the Vd is 35 L/kg and the k el was 9.74e-07 s⁻¹. For the same compound, the “tvf (ilogit of the oral bioavailability)” value in series [1] (female, New Zealand white (INRA 1777 line), rabbit, in vivo, po) turned out to be 0.03625. Also, the bioavailability in series [1] (female, New Zealand white (INRA 1777 line), rabbit, in vivo, po, Oral bioavailability (F)) was around 50%. Further, in series [1] (setting [4]), the Clearance is 0.83 to 5.67 mL/min/kg, the “Clearance(s) of distribution” value worked out at 13 mL/min/kg, the clearance is 0.85 mL/min/kg and the half-life is 20 days. The same compound returned an MRT in series [1] (female, New Zealand white, rabbit, in vivo, MRT) above 33.3 days. Besides, the AUC in series [1] (setting [5]) amounted to 4.5 µM·h. The AUC in series [1] (setting [6]) was determined as 271 µM·h. In addition, in series [1] (female, New Zealand white, rabbit, in vivo, po, Bioavailability), the bioavailability amounted to 51%. In series [1] (mean), the “tvK12 (distribution rate constant)” value amounted to 0.05299 h⁻¹, the “tvK21 (distribution rate constant)” value came out at 0.03851 h⁻¹, the “tvVc (volume of the central compartment)” value is given as 14.63 L/kg and the “tvKabs (rate constant of absorption)” value amounted to 0.3488 h⁻¹. Further, the “Volume(s) of the peripheral compartment” value in series [1] (setting [7]) was found to be 20 L/kg. In addition, the concentration at 17 wk in series [2] worked out at 2.9 ± 1.5 ng/mL.

With `O=S(=O)(O)C(F)(F)C(F)(F)C(F)(F)C(F)(F)C(F)(F)C(F)(F)C(F)(F)C(F)(F)F` [nPFOS, linear isomer of perfluorooctane sulfonate], in series [1] (NLME model), the MRT was found to be 47.6 days, the “Oral bioavailability (F)” value is “total” and the “Terminal HL” value is 33 days. In addition, in series [1] (population secondary parameter), the AUCIV stood at 355 µM·h and the AUCVO is 1,246 μmol×h/L. Besides, in series [1], the AUCVO/dose was 3,115 μmol×h/L per μmol/kg BW. This compound also gave a bioavailability in series [1] (oral, population secondary parameter, mean, as fraction) of 1. In series [1] (mean), the “tvK10 (elimination rate constant from the central compartment)” value worked out at 0.00111 h⁻¹, the “tvK12 (distribution rate constant)” value stood at 0.153 h⁻¹, the “tvK21 (distribution rate constant)” value worked out at 0.581 h⁻¹ and the “tvVc (volume of the central compartment)” value stood at 0.290 L/kg. Also, the “tvKabs (rate constant of absorption)” value in series [1] (mean) came out at 0.252 h⁻¹. Besides, in series [1] (setting [7]), the Clearance came out at 0.00533 mL/min/kg, the VSS is reported as 0.37 L/kg and the “Volume(s) of the peripheral compartment” value was 0.077 L/kg. In series [1] (terminal, population secondary parameter, mean), this compound displayed a half-life of 33 days.
